Experimental data reported in BindingDB's records for doi:10.1016/s0960-894x(99)00335-2 (Merck Research Laboratories, 1999).
pIC50: −log10 of the molar value.

Experiment: Concentration required for inhibition of serine/threonine protein phosphatase calcineurin (CAN)

SMILES: CC[C@@H]1/C=C(\C)C[C@H](C)C[C@H](OC)[C@H]2O[C@@](O)(C(=O)C(=O)N3CCCC[C@H]3C(=O)O[C@H](/C(C)=C/[C@@H]3CC[C@@H](OCCCc4ccccc4)[C@H](OC)C3)[C@H](C)[C@@H](O)CC1=O)[C@H](C)C[C@@H]2OC [C32-O-Phenalkyl ether derivative of Ascomycin]
- pIC50: 7.85

SMILES: CC[C@@H]1/C=C(\C)C[C@H](C)C[C@H](OC)[C@H]2O[C@@](O)(C(=O)C(=O)N3CCCC[C@H]3C(=O)O[C@H](/C(C)=C/[C@@H]3CC[C@@H](OCCc4ccccc4)[C@H](OC)C3)[C@H](C)[C@@H](O)CC1=O)[C@H](C)C[C@@H]2OC [C32-O-Phenalkyl ether derivative of Ascomycin]
- pIC50: 8.14
